Measurements from US11963519B2 (priority 2022, dated 2024).
Several values for one entry are separate records, joined by “and”; a condition that tells them apart may be missing. Equal values may be shown once.

Tests used:
[1] = tested on: CD-1 mice; assay type: in vivo, mouse
[2] = tested on: CD-1 mice; assay type: in vivo, mouse; remark: listed apart in the source
[3] = tested on: CD-1 mice; settings: mouse, in vivo

CN(C)CCCN1c2ccccc2CCc2ccccc21 [IMI, imipramine]
exploratory behaviors in open-field test of BCG+PTX model mice ([1]; mouse, in vivo): increased
exploratory behaviors in open-field test of depression model mice ([1]; mouse, in vivo): decreased
number of times of zone crossing in open-field test of BCG+PTX model mice ([1]; mouse, in vivo): increased
number of times of zone crossing in open-field test of depression model mice ([1]; mouse, in vivo): decreased
total movement distance in open-field test of BCG+PTX model mice ([1]; mouse, in vivo): increased
total movement distance in open-field test of depression model mice ([1]; mouse, in vivo): decreased
motionlessness time (behavioral despair state) in TST of BCG+PTX model mice ([2]; mouse, in vivo): improved
sucrose preference rate in depression model mice [3]: significantly reduce

Bacille Calmette-Guerin [BCG]
Open-field test Number of times of exploratory behaviors ([1]; n=12): 23.83 ± 12.41 and 38.92 ± 15.96
Open-field test Number of times of zone crossing ([1]; n=12): 104.91 ± 35.1528 and 138.73 ± 23.44
Open-field test Total movement distance ([1]; n=12): 582.74 ± 211.42 cm and 734.20 ± 349.87 cm
TST Motionlessness time ([2]; n=12): 122.60 ± 34.11 s and 98.84 ± 21.35 s
